Reference: PMC9279627 (Acta Pharmaceutica Sinica. B, 2021)

Columns and labels:
CYP2C9 [1] = biological target: T1, CYP2C9 (Homo sapiens, UniProt P11712); assay type: biochemical; settings: for Modulation of CYP2C9 activity in visual high-throughput screen: clinical drugs 10 μmol/L, DDAM 10 μmol/L, HLM, 96-well microplate; for Concentration-dependent inhibitory effect toward CYP2C9: 0.1, 0.5, 1, 10 and 20 μmol/L, DDAM, Fig. 4B
CYP2C9 [2] = biological target: T1, CYP2C9; settings: DDAM 10 μmol/L, Fig. S6
[3] = system: CYP2J2 in HeLa and HepG2 cells; assay: Confocal fluorescence imaging of CYP2J2 activity by MXMB in living cells; assay type: cell-based, human; settings: Fig. S13

T1 sequence (P11712 whole entry): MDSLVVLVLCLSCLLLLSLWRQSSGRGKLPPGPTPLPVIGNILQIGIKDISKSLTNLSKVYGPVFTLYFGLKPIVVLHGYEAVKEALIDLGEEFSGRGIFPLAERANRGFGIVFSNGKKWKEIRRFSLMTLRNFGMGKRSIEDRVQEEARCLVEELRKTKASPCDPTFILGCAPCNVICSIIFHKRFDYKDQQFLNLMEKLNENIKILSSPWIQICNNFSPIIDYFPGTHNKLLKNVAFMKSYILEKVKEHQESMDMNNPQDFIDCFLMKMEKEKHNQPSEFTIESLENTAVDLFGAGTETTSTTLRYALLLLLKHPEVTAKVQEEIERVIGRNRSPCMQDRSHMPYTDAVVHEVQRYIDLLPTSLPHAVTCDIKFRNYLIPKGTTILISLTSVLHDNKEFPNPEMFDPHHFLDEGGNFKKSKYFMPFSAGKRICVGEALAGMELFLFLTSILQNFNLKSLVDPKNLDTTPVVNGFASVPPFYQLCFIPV

| SMILES | Modulation of CYP2C9 activity in visual high-throughput screen (CYP2C9 [1]) | also measured |
| --- | --- | --- |
| C[C@]12CC[C@@H]3c4ccc(O)cc4CC[C@H]3[C@@H]1CC[C@@H]2O [estradiol] | activators |  |
| CCCCCCCCCCCc1cc(=O)c2ccccc2n1C [1-methyl-2-undecyl-4(1H) quinolone] |  | Inhibitor of CYP2C9 identified from E. rutaecarpa extract (CYP2C9 [1]; DDAM fluorescence assay, pre-HPLC fractions): novel inhibitor |
| Clc1ccc(COC(Cn2ccnc2)c2ccc(Cl)cc2Cl)c(Cl)c1 (stereo not shown) [miconazole] | strong inhibitors | Concentration-dependent inhibitory effect toward CYP2C9 (CYP2C9 [1]): significant inhibitory effect |
| Cc1c(OCC(F)(F)F)ccnc1C[S+]([O-])c1nc2ccccc2[nH]1 (stereo not shown) [lansoprazole] | activators |  |
| Nc1ccc(S(=O)(=O)Nc2ccnn2-c2ccccc2)cc1 [sulfaphenazole] | strong inhibitors | Concentration-dependent inhibitory effect toward CYP2C9 (CYP2C9 [1]): significant inhibitory effect; Effect on demethylation of DDAM (CYP2C9 [2]): inhibited |
| C#C[C@]1(O)CC[C@H]2[C@@H]3CCC4=Cc5oncc5C[C@]4(C)[C@H]3CC[C@@]21C [danazol] |  | Effect of pre-treatment on intracellular fluorescence of MXMB [3]: remarkable suppression of intracellular fluorescence |

Now from value to compound, other results behind:

| Modulation of CYP2C9 activity in visual high-throughput screen (CYP2C9 [1]) | SMILES | also measured |
| --- | --- | --- |
| activators | Nc1ccc(S(=O)(=O)c2ccc(N)cc2)cc1 [dapsone] |  |
| activators | NCCc1ccc(O)c(O)c1 [dopamine] |  |
| activators | COc1ccc2[nH]c([S+]([O-])Cc3ncc(C)c(OC)c3C)nc2c1 (stereo not shown) [omeprazole] |  |
| activators | COc1ccnc(C[S+]([O-])c2nc3ccc(OC(F)F)cc3[nH]2)c1OC (stereo not shown) [pantoprazole] |  |
| strong inhibitors | O=C(c1ccc(OCCN2CCCCC2)cc1)c1c(-c2ccc(O)cc2)sc2cc(O)ccc12 [raloxifene] | Concentration-dependent inhibitory effect toward CYP2C9 (CYP2C9 [1]): significant inhibitory effect |
| activators | COC(=O)Nc1nc2ccc(C(=O)c3ccccc3)cc2[nH]1 [mebendazole] |  |
